Measurements reported in US10308659B2, “Pyridine derivatives” (Hoffmann-La Roche Inc., priority 2013, dated 2019).

Experiments:
human CB1 receptors = human CB1 receptors (Homo sapiens (Human), UniProt P21554); test: cAMP assay, CHO cells expressing human CB1 receptors; type: cell-based; settings: functional cAMP assay, CHO cells expressing human CB1; read-out: EC50 CB1 human
Protocol: (§1) CHO cells expressing human CB1 or CB2 receptors are seeded 17-24 hours prior to the experiment 50.000 cells per well in a black 96 well plate with flat clear bottom (Corning Costar #3904) in DMEM (Invitrogen No. 31331), 1×HT supplement, with 10% fetal calf serum and incubated at 5% CO2 and 37° C. in a humidified incubator. The growth medium was exchanged with Krebs Ringer Bicarbonate buffer with 1 mM IBMX and incubated at 30° C. for 30 min. Compounds were added to a final assay volume of 100 μl and incubated for 30 min at 30° C. […] The time-resolved energy transfer is measured by a TRF reader (Evotec Technologies GmbH), equipped with a ND:YAG laser as excitation source. The plate is measured twice with the excitation at 355 nm and at the emission with a delay of 100 ns and a gate of 100 ns, total exposure time 10 s at 730 (bandwidth30 nm) or 645 nm (bandwidth 75 nm), respectively. The FRET signal is calculated as follows: FRET=T730-Alexa730-P(T645-B645) with P=Ru730-B730/Ru645-B645, where T730 is the test well measured at 730 nM, T645 is the test well measured at 645 nm, B730 and B645 are the buffer controls at 730 nm and 645 nm, respectively. cAMP content is determined from the function of a standard curve spanning from 10 μM to 0.13 nM cAMP.
(§2) EC50 values were determined using Activity Base analysis (ID Business Solution, Limited).

human CB2 receptors = human CB2 receptors (Homo sapiens (Human), UniProt P34972); test: cAMP assay, CHO cells expressing human CB2 receptors; type: cell-based; settings: functional cAMP assay, CHO cells expressing human CB2; read-out: EC50 CB2 human
Chain of human CB2 receptors (P34972 whole entry): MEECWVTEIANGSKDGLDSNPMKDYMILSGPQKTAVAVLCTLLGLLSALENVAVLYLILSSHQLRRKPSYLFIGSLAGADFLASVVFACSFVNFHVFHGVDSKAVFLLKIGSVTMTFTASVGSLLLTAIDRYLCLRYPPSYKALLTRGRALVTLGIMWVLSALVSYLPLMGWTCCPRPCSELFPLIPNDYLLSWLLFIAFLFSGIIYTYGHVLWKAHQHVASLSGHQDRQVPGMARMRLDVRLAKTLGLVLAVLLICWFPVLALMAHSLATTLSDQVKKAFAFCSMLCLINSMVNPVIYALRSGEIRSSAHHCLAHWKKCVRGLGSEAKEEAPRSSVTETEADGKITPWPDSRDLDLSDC
Protocol: as §1, §2

Chain of human CB1 receptors (P21554 whole entry): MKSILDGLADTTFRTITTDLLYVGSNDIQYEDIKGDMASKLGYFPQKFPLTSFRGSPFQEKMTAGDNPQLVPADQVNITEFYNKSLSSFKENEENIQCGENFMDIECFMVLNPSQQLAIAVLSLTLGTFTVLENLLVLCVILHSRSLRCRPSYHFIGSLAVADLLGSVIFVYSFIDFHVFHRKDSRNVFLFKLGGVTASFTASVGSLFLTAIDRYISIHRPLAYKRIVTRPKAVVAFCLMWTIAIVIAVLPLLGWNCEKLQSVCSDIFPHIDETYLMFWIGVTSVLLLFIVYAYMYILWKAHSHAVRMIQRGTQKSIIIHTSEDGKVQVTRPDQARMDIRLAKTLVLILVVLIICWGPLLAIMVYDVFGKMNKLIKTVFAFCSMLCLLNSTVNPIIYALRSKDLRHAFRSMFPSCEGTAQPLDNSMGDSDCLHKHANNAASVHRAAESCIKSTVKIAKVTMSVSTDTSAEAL

| SMILES | EC50 (human CB1 receptors) [µM] | EC50 (human CB2 receptors) [µM] |
| --- | --- | --- |
| FC(F)(F)COc1cc(-c2nc(C(F)(F)F)no2)ncc1C1CC1 [Example 8, 5-[5-cyclopropyl-4-(2,2,2-trifluoroethoxy)pyridin-2-yl]-3-(trifluoromethyl)-1,2,4-oxadiazole] | > 10 | 0.0213 |
| CC1(c2nc(-c3cc(OCC(F)(F)F)c(C4CC4)cn3)no2)COC1 [Example 38, 3-[5-cyclopropyl-4-(2,2,2-trifluoroethoxy)pyridin-2-yl]-5-(3-methyloxetan-3-yl)-1,2,4-oxadiazole] | > 10 | 0.128 |
| CC(C)(C)c1nc(-c2cc(N3CC4(COC4)C3)c(C3CC3)cn2)no1 [Example 82, 6-[2-(5-tert-butyl-1,2,4-oxadiazol-3-yl)-5-cyclopropylpyridin-4-yl]-2-oxa-6-azaspiro[3.3]heptane] | > 10 | 0.0379 |
| CC(C)(C)c1nc(-c2cc(OCC3CC3)c(N3CCC34COC4)cn2)no1 [Example 35, 1-[6-(5-tert-butyl-1,2,4-oxadiazol-3-yl)-4-(cyclopropylmethoxy)pyridin-3-yl]-6-oxa-1-azaspiro[3.3]heptane] | > 10 | 0.0328 |
| CC(C)(C)c1nc(-c2cc(S(=O)(=O)C3CC3)c(C3CC3)cn2)no1 [Example 80, 5-tert-butyl-3-(5-cyclopropyl-4-cyclopropylsulfonylpyridin-2-yl)-1,2,4-oxadiazole] | > 10 | 0.0475 |
| CC1(c2nc(-c3cc(OCC(F)(F)F)c(N4CC(F)(F)C4)cn3)no2)CC1 [Example 50, 3-[5-(3,3-difluoroazetidin-1-yl)-4-(2,2,2-trifluoroethoxy)pyridin-2-yl]-5-(1-methylcyclopropyl)-1,2,4-oxadiazole] | > 10 | 0.0458 |
| NC1(c2nc(-c3cc(OCC4CC4)c(C4CC4)cn3)no2)COC1 [Example 60, 3-[3-[5-cyclopropyl-4-(cyclopropylmethoxy)pyridin-2-yl]-1,2,4-oxadiazol-5-yl]oxetan-3-amine] | > 10 | 0.448 |
| CC(C)(C)c1nc(-c2cc(OCCF)c(C3CC3)cn2)no1 [Example 116, 5-tert-butyl-3-[5-cyclopropyl-4-(2-fluoroethoxy)pyridin-2-yl]-1,2,4-oxadiazole] | > 10 | 0.0155 |
| c1c(-c2noc(C3CNC3)n2)ncc(C2CC2)c1OCC1CC1 [Example 29, 5-(azetidin-3-yl)-3-[5-cyclopropyl-4-(cyclopropylmethoxy)pyridin-2-yl]-1,2,4-oxadiazole] | > 10 | 0.797 |
| CC(C)(C)c1nc(-c2cc(OC3COC3)c(C3CC3)cn2)no1 [Example 54, 5-tert-butyl-3-[5-cyclopropyl-4-(oxetan-3-yloxy)pyridin-2-yl]-1,2,4-oxadiazole] | > 10 | 0.0331 |
| CC(C)(C)c1nc(-c2cc(OCC3(F)COC3)c(C3CC3)cn2)no1 [Example 105, 5-tert-butyl-3-[5-cyclopropyl-4-[(3-fluorooxetan-3-yl)methoxy]pyridin-2-yl]-1,2,4-oxadiazole] | > 10 | 0.0291 |
| CCOCCOc1cc(-c2noc(C(C)(C)C)n2)ncc1C1CC1 [Example 83, 5-tert-butyl-3-[5-cyclopropyl-4-(2-ethoxyethoxy)pyridin-2-yl]-1,2,4-oxadiazole] | > 10 | 0.0301 |
| FC(F)(F)COc1cc(C2=NC3(CCCCC3)CO2)ncc1C1CC1 [Example 31, 2-[5-cyclopropyl-4-(2,2,2-trifluoroethoxy)pyridin-2-yl]-3-oxa-1-azaspiro[4.5]dec-1-ene] | > 10 | 0.0194 |
| CN1CCC[C@H]1COc1cc(-c2nc(C(C)(C)C)no2)ncc1C1CC1 [Example 122, 3-tert-butyl-5-[5-cyclopropyl-4-[[(2S)-1-methylpyrrolidin-2-yl]methoxy]pyridin-2-yl]-1,2,4-oxadiazole] | > 10 | 0.146 |
| CC(C)(C)c1nc(-c2cc(N3CCC(O)C3)c(C3CC3)cn2)no1 (stereo not shown) [Example 73, 1-[2-(5-tert-butyl-1,2,4-oxadiazol-3-yl)-5-cyclopropylpyridin-4-yl]pyrrolidin-3-ol] | > 10 | 0.0572 |
| COC1CN(c2cc(-c3noc(C(C)(C)C)n3)ncc2C2CC2)C1 [Example 81, 5-tert-butyl-3-[5-cyclopropyl-4-(3-methoxyazetidin-1-yl)pyridin-2-yl]-1,2,4-oxadiazole] | > 10 | 0.0211 |

| SMILES | EC50 (human CB1 receptors) [µM] | EC50 (human CB2 receptors) [µM] |
| --- | --- | --- |
| CC(C)(C)c1nc(-c2cc(OCCN3CCCC3)c(C3CC3)cn2)no1 [Example 94, 5-tert-butyl-3-[5-cyclopropyl-4-(2-pyrrolidin-1-ylethoxy)pyridin-2-yl]-1,2,4-oxadiazole] | > 10 | 0.0602 |
| OC1(c2nc(-c3cc(OCC(F)(F)F)c(N4CC(F)(F)C4)cn3)no2)CC1 [Example 46, 1-[3-[5-(3,3-difluoroazetidin-1-yl)-4-(2,2,2-trifluoroethoxy)pyridin-2-yl]-1,2,4-oxadiazol-5-yl]cyclopropan-1-ol] | > 10 | 0.18 |
| CC(C)C1(C)N=C(c2cc(OCC(F)(F)F)c(C3CC3)cn2)NC1=O (stereo not shown) [Example 66, 2-[5-cyclopropyl-4-(2,2,2-trifluoroethoxy)pyridin-2-yl]-4-methyl-4-propan-2-yl-1H-imidazol-5-one] | > 10 | 0.009 |
| FC(F)(F)COc1cc(-c2noc(C3CC3)n2)ncc1Cl [Example 71, 3-[5-chloro-4-(2,2,2-trifluoroethoxy)pyridin-2-yl]-5-cyclopropyl-1,2,4-oxadiazole] | > 10 | 0.28 |
| Cc1nc(C2(C)COC(c3cc(OCC(F)(F)F)c(C4CC4)cn3)=N2)no1 (stereo not shown) [Example 111, 3-[2-[5-cyclopropyl-4-(2,2,2-trifluoroethoxy)pyridin-2-yl]-4-methyl-5H-1,3-oxazol-4-yl]-5-methyl-1,2,4-oxadiazole] | > 10 | 0.0576 |
| CC(C)(C)c1nc(-c2cc(OCC3CCO3)c(C3CC3)cn2)no1 (stereo not shown) [Example 58, 5-tert-butyl-3-[5-cyclopropyl-4-(oxetan-2-ylmethoxy)pyridin-2-yl]-1,2,4-oxadiazole] | > 10 | 0.0156 |
| CC(C)(C)c1nc(-c2cc(N3CC(F)(F)C(F)(F)C3)c(C3CC3)cn2)no1 [Example 74, 5-tert-butyl-3-[5-cyclopropyl-4-(3,3,4,4-tetrafluoropyrrolidin-1-yl)pyridin-2-yl]-1,2,4-oxadiazole] | > 10 | 0.0047 |
| CC(C)(C)c1nc(-c2cc(OCCN3CCCCC3)c(C3CC3)cn2)no1 [Example 95, 5-tert-butyl-3-[5-cyclopropyl-4-(2-piperidin-1-ylethoxy)pyridin-2-yl]-1,2,4-oxadiazole] | > 10 | 0.0261 |
| CC(C)(C)c1nc(-c2cc(OCC3CC3)c(N3CC(F)(F)C3)cn2)no1 [Example 32, 5-tert-butyl-3-[4-(cyclopropylmethoxy)-5-(3,3-difluoroazetidin-1-yl)pyridin-2-yl]-1,2,4-oxadiazole] | > 10 | 0.0086 |
| CC(C)(C)c1nc(-c2cc(OC3CCOCC3)c(C3CC3)c(Cl)n2)no1 [Example 114, 5-tert-butyl-3-[6-chloro-5-cyclopropyl-4-(oxan-4-yloxy)pyridin-2-yl]-1,2,4-oxadiazole] | 0.455 | 0.0037 |
| FC(F)(F)COc1cc(-c2nc(C3CC3)no2)ncc1N1CC(F)(F)C1 [Example 15, 3-cyclopropyl-5-[5-(3,3-difluoroazetidin-1-yl)-4-(2,2,2-trifluoroethoxy)pyridin-2-yl]-1,2,4-oxadiazole] | > 10 | 0.0198 |
| CCC1(C)N=C(c2cc(OCC(F)(F)F)c(C3CC3)cn2)NC1=O (stereo not shown) [Example 68, 2-[5-cyclopropyl-4-(2,2,2-trifluoroethoxy)pyridin-2-yl]-4-ethyl-4-methyl-1H-imidazol-5-one] | > 10 | 0.0726 |
| CC1(c2nc(-c3cc(OCC(F)(F)F)c(N4CC(F)(F)C4)cn3)no2)COC1 [Example 47, 3-[5-(3,3-difluoroazetidin-1-yl)-4-(2,2,2-trifluoroethoxy)pyridin-2-yl]-5-(3-methyloxetan-3-yl)-1,2,4-oxadiazole] | > 10 | 0.166 |
| OC1(c2nc(-c3cc(OCC(F)(F)F)c(C4CC4)cn3)no2)CC1 [Example 37, 1-[3-[5-cyclopropyl-4-(2,2,2-trifluoroethoxy)pyridin-2-yl]-1,2,4-oxadiazol-5-yl]cyclopropan-1-ol] | > 10 | 0.236 |
| CCN1CCCC(Oc2cc(-c3noc(C(C)(C)C)n3)ncc2C2CC2)C1 (stereo not shown) [Example 100, 5-tert-butyl-3-[5-cyclopropyl-4-(1-ethylpiperidin-3-yl)oxypyridin-2-yl]-1,2,4-oxadiazole] | > 10 | 0.518 |
| CC(C)c1nc(-c2cc(OCC3CC3)c(C3CC3)cn2)no1 [Example 14, 3-[5-cyclopropyl-4-(cyclopropylmethoxy)pyridin-2-yl]-5-propan-2-yl-1,2,4-oxadiazole] | > 10 | 0.0037 |
